The structures appear in SMILES notation.

This passage reports activity and Emax results from PMC9713482, “Discovery of (R)-2-amino-3-triazolpropanoic acid derivatives as NMDA receptor glycine site agonists with GluN2 subunit-specific activity” (Frontiers in Chemistry, 2022).

Common to all, as to test: cell-based
Test [1] addresses T1, GluN1/2B (Rattus norvegicus, UniProt P35439).
T1 construct: gene Grin1; full-length subunits co-expressed from cRNA (1:2) in Xenopus laevis oocytes; GluN2B ORF altered only silently; heterotetramer; with Glutamate receptor ionotropic, NMDA 2B
Details: species or system Xenopus laevis oocytes; two-electrode voltage-clamp recording of NMDA receptor agonist responses with 300 uM glutamate, relative to maximal glycine response. The conditions noted are these: Oocyte; 300 uM glutamate; read-out: % activation. The protocol: (§1) Oocytes were injected with cRNAs for GluN1 and GluN2 subunits at a 1:2 ratio, and incubated as previously described ([Hansen et al., 2013]). The injected oocytes were used for two-electrode voltage-clamp recordings at room temperature (21–23°C) after 2–4 days of expression. as previously described ([Hansen et al., 2013]). The holding potential was −40 mV in all recordings. The recording solution was comprised of (in mM) 90 NaCl, 1 KCl, 10 HEPES, 0.5 BaCl2 and 0.01 EDTA (pH 7.4). For experiments with GluN1/2A or GluN1/2B receptors, the oocytes were injected at least 10 min before recordings with 50 mM BAPTA (30–50 nL) to minimize use-dependent increases in response amplitudes ([Williams, 1993]). Compounds were dissolved as 20–100 mM stock solutions in DMSO, and DMSO concentrations were constant in all recording solutions and never exceeded 1%. GraphPad Prism (GraphPad Software, La Jolla, CA) was used to analyze agonist concentration-response data. Briefly, the data for each oocyte were fitted to the following Hill equation, I = Rmax/(1 + 10^((logEC50-log [A])*nH)). […] The pharmacological properties of analogues 13a-j and 16 were determined with two-electrode voltage-clamp recordings of responses from recombinant NMDA receptor subtypes (Table 1; Figure 4). Compound 13f was identified as agonist with lower maximal response relative to glycine (Rmax) at GluN1/2A (47%) and GluN1/2B (23%), but Rmax similar to glycine at GluN1/2C (94%) and GluN1/2D (96%).

Test [2] deals with T2, GluN1/2C (Rattus norvegicus, UniProt P35439).
T2 construct: gene Grin1; full-length subunits co-expressed from cRNA (1:2) in Xenopus laevis oocytes; heterotetramer (human Q14957 was used only for modelling); with Glutamate receptor ionotropic, NMDA 2C
Details: species or system Xenopus laevis oocytes; two-electrode voltage-clamp recording of NMDA receptor agonist responses with 300 uM glutamate, relative to maximal glycine response. To be noted: Oocyte; 300 uM glutamate; read-out: % activation. The procedure:
as §1

In test [3] the target is T3, GluN1/2D (Rattus norvegicus, UniProt P35439).
T3 construct: gene Grin1; full-length subunits co-expressed from cRNA (1:2) in Xenopus laevis oocytes; heterotetramer; with Glutamate receptor ionotropic, NMDA 2D
More on the design: species or system Xenopus laevis oocytes; two-electrode voltage-clamp recording of NMDA receptor agonist responses with 300 uM glutamate, relative to maximal glycine response. To be noted: Oocyte; 300 uM glutamate; read-out: % activation. The procedure:
as §1

Test [4] has as its target T4, GluN1/2A (Rattus norvegicus, UniProt P35439).
T4 construct: gene Grin1; full-length subunits co-expressed from cRNA (GluN1:GluN2 1:2) in Xenopus laevis oocytes; heterotetramer; glycine site in GluN1; with Glutamate receptor ionotropic, NMDA 2A
More on the design: species or system Xenopus laevis oocytes; Two-electrode voltage-clamp concentration-response of glycine-site agonists with saturating glutamate; efficacy relative to 100 uM glycine. To be noted: Oocyte; fitted maximum relative to 100 uM glycine, saturating glutamate; read-out: Rel. efficacy (%) / 99.6672727273 / 96.0542857143. An excerpt: (§2) For expression in Xenopus laevis oocytes purchased from Rob Weymouth (Xenopus 1, Dexter, MI), cDNAs encoding rat NMDA receptor subunits, GluN1-1a (Genbank accession number U11418 and U08261), GluN2A (D13211), GluN2B (U11419), GluN2C (M91563), and GluN2D (L31611), were used to produce cRNAs using the mMessage mMachine kit (Ambion, Life Technologies, Paisley, United Kingdom) according to the manufacturer’s protocol. The open reading frame of the GluN2B subunit was altered without changing the amino acid sequence to remove a termination site for the T7 RNA polymerase used to synthesize cRNA ([Hansen et al., 2014]). Oocytes were injected with cRNAs for GluN1 and GluN2 subunits at a 1:2 ratio, and incubated as previously described ([Hansen et al., 2013]). The injected oocytes were used for two-electrode […] recordings at room temperature (21–23°C) after 2–4 days of expression. as previously described ([Hansen et al., 2013]). The holding potential was −40 mV in all recordings. The recording solution was comprised of (in mM) 90 NaCl, 1 KCl, 10 HEPES, 0.5 BaCl2 and 0.01 EDTA (pH 7.4). For experiments with GluN1/2A or GluN1/2B receptors, the oocytes were injected at least 10 min before recordings with 50 mM BAPTA (30–50 nL) to minimize use-dependent increases in response amplitudes ([Williams, 1993]). Compounds were dissolved as 20–100 mM stock solutions in DMSO, and DMSO concentrations were constant in all recording solutions and never exceeded 1%. GraphPad Prism (GraphPad Software, La Jolla, CA) was used to analyze agonist concentration-response data. Briefly, the data for each oocyte were fitted to the following Hill equation, I = Rmax/(1 + 10^((logEC50-log [A])*nH)).

Test [5] addresses T1, GluN1/2B. More on the design: species or system Xenopus laevis oocytes; Two-electrode voltage-clamp concentration-response of glycine-site agonists with saturating glutamate; efficacy relative to 100 uM glycine. To be noted: Oocyte; fitted maximum relative to 100 uM glycine, saturating glutamate; read-out: Rel. efficacy (%) / 100 / 100.0775.
Description: as §2

Test [6] deals with T2, GluN1/2C. More on the design: species or system Xenopus laevis oocytes; Two-electrode voltage-clamp concentration-response of glycine-site agonists with saturating glutamate; efficacy relative to 100 uM glycine. The conditions noted are these: Oocyte; fitted maximum relative to 100 uM glycine, saturating glutamate; read-out: Rel. efficacy (%) / 100 / 111.08.
Description: as §2

Test [7] addresses T3, GluN1/2D. Details: species or system Xenopus laevis oocytes; Two-electrode voltage-clamp concentration-response of glycine-site agonists with saturating glutamate; efficacy relative to 100 uM glycine. To be noted: Oocyte; fitted maximum relative to 100 uM glycine, saturating glutamate; read-out: Rel. efficacy (%) / 100 / 92.671.
Description: as §2

Take `N[C@H](Cn1cc(CCO)nn1)C(=O)O` [13a, (R)-2-Amino-3-(4-(2-hydroxyethyl)-1H-1,2,3-triazol-1-yl)propanoic acid]: the results for the activity at 100 µM in test [1], in test [2] and in test [3] were 6.2%, 22% and 34%, respectively.
On the same counts, the results for `CCCCc1cn(C[C@@H](N)C(=O)O)nn1` [13b, (R)-2-Amino-3-(4-butyl-1H-1,2,3-triazol-1-yl)propanoic acid] are 9.2%, 27% and 32%.
For the molecule `N[C@H](Cn1cc(Cc2ccccc2)nn1)C(=O)O` [13c, (R)-2-Amino-3-(4-benzyl-1H-1,2,3-triazol-1-yl)propanoic acid], the figures for the activity at 100 µM in test [2] and in test [3] were 12% and 5.9%, respectively.
Take `Nc1ccc(-c2cn(C[C@@H](N)C(=O)O)nn2)cc1` [13f, (R)-2-Amino-3-(4-(4-aminophenyl)-1H-1,2,3-triazol-1-yl)propanoic acid]: the Emax in test [4] turned out to be 47.3%; in test [5], 22.8%; in test [6] it was 93.9%; in test [7] it was 96.5%.
On the same counts, the results for `N[C@H](Cn1cc(-c2cccnc2)nn1)C(=O)O` [13g, (R)-2-Amino-3-(4-(pyridin-3-yl)-1H-1,2,3-triazol-1-yl)propanoic acid] are 65.5%, 55.7%, 96.9% and 87.5%.
On the same counts, the results for `N[C@H](Cn1cc(-c2ccsc2)nn1)C(=O)O` [13i, (R)-2-Amino-3-(4-(thiophen-3-yl)-1H-1,2,3-triazol-1-yl)propanoic acid] are 56.4%, 46.3%, 81.9% and 81.8%.
